Where two headings read alike, the source gives them in different places.
Experiments:
recombinant human AChE = biological target: T1, recombinant human AChE (Homo sapiens, UniProt P22303); assay: biochemical; format: biochemical; conditions: for IS: IS = Ki(BChE)/Ki(AChE), IS > 1 selective to AChE
T1 construct: gift of Dr Florian Nachon (Armed Forces Biomedical Research Institute, Brétigny-sur-Orge, France)
Description: (§1) Acetylthiocholine (ATCh) and 5,5′-dithiobis(2-nitrobenzoic acid) (DTNB) were purchased from Sigma-Aldrich, St. Louis, MO, USA. ATCh was dissolved in water and DTNB in 0.1 M sodium phosphate buffer (pH 7.4). The 4-aminoquinilines were dissolved in DMSO and all further dilutions were made in water.
(§2) The sources of AChE and BChE were purified human BChE and recombinant human AChE that was kindly provided by Dr Florian Nachon (Département de Toxicologie, Armed Forces Biomedical Research Institute, Brétigny-sur-Orge, France). […] The enzymes were diluted in sodium phosphate buffer 0.1 M (pH 7.4) containing 0.1% BSA.
(§3) Enzyme activities were measured spectrophotometrically using a slightly modified Ellman method, as described earlier. […] At least three inhibitor concentrations for each substrate concentration were used in at least three experiments. The apparent inhibition constant (Ki,app) was calculated using the Hunter–Downs Equation and linear regression analysis:(1) Ki,app=vi·i/v0−vi=Ki+Ki/KS·s where the y-intercept determines the enzyme-inhibitor dissociation constant (Ki), while the x-intercept determines the enzyme-substrate dissociation constant, KS.
(§4) The Hunter–Downs Equation was used under the assumption that the substrate, due to relatively low concentrations used in experiments, would bind only to the catalytic site of the enzymes, while the inhibitors would bind to both CAS and/or PAs. This allowed the type of inhibition to be determined from Ki,app vs. substrate concentration ([S]) dependency on Hunter–Downs plot.
(§5) The final content of DMSO in the measurements was up to 0.2%. […] The measurements were performed at 25 °C on a Tecan Infinite M200Pro plate reader (Tecan Austria GmbH, Salzburg, Austria).

purified human BChE = biological target: T2, purified human BChE (Homo sapiens, UniProt P06276); assay: biochemical; format: biochemical
T2 construct: possibly also a gift of Dr Florian Nachon (the sentence is ambiguous)
T2 sequence (P06276 29-602): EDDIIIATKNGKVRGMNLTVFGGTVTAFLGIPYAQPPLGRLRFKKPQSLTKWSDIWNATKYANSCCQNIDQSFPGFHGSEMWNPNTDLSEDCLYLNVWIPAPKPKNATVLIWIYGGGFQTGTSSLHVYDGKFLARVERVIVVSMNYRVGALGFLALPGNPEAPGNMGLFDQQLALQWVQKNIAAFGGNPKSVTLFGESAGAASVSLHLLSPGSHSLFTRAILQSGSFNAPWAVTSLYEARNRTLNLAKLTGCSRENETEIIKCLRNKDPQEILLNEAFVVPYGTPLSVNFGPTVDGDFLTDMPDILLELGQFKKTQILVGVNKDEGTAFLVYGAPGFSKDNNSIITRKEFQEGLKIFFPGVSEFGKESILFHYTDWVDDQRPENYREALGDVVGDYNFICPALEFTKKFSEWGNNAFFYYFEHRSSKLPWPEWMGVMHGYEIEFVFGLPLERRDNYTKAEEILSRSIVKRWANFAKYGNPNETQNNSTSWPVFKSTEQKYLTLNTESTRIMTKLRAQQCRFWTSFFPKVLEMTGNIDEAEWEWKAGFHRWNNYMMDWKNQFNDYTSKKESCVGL
Description: as §1, §2, §3, §4, §5

[1] = Ferric reducing antioxidant power (FRAP) assay; conditions: mean ± standard error of three experiments;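 note: expressed as µM Fe2+ equivalents from an FeSO4·7H2O standard curve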
Description: . All the chemicals were purchased from Sigma-Aldrich (St. Louis, MO, USA), except for tripyridyltriazine (TPTZ) (Fluka, Buchs, Switzerland) and FeCl3 (Kemika, Zagreb, Croatia). The FRAP assay was assessed according to Benzie and Strain [53] with slight procedure adjustments for 96-well microplates. The method is based on the reduction of the ferric-tripyridyltriazine (Fe^3+-TPTZ) complex to ferrous tripyridyltriazine (Fe^2+-TPTZ) by the action of electron-donating compounds at a low pH. Briefly, the FRAP reagent was prepared by mixing acetate buffer (300 mM, pH 3.6), a solution of 10 mM TPTZ in 40 mM HCl, and 20 mM FeCl3 at 10:1:1 (v/v/v). Then, 240 μL of FRAP reagent and 10 μL of sample solution were added to a 96-well plate and incubated at 37 °C for 60 min. The absorbance was measured at 593 nm using a microplate reader (Infinite M200PRO, Tecan Austria GmbH, Salzburg, Austria) against a blank. The reducing capacity was determined for 10 and 100 µM compound concentrations. […]. All measurements were performed in three independent experiments. FRAP values, denominating the reduction of ferric-tripyridyltriazine (Fe^3+-TPTZ) to ferrous tripyridyltriazine (Fe^2+-TPTZ) by 4-aminoquinolines were calculated based on a standard curve obtained using […].

[2] = Reverse-phase thin-layer chromatographic lipophilicity (RF, RM0); format: physicochemical; conditions: for RM0: intercept of RM = RM0 + bC; for b: slope of RM = RM0 + bC; for RF, Methanol/Water/Hydrochloric acid (conc.), mobile phase I: I = 90%MeOH/5%H2O/5%HCl; for RF, Dioxane/Water/Hydrochloric acid (conc.), mobile phase II: II = 80%Dioxane/15%H2O/5%HCl; for RF, Methanol/Water/Hydrochloric acid (conc.), mobile phase II: II = 85%MeOH/10%H2O/5%HCl; for RF, Acetone/Water/Hydrochloric acid (conc.), mobile phase III: III = 70%AC/25%H2O/5%HCl; for RF, Dioxane/Water/Hydrochloric acid (conc.), mobile phase III: III = 70%Dioxane/25%H2O/5%HCl; for RF, Methanol/Water/Hydrochloric acid (conc.), mobile phase III: III = 80%MeOH/15%H2O/5%HCl; for RF, Dioxane/Water/Hydrochloric acid (conc.), mobile phase IV: IV = 60%Dioxane/35%H2O/5%HCl; for RF, Acetone/Water/Hydrochloric acid (conc.), mobile phase IV: IV = 65%AC/30%H2O/5%HCl; for RF, Methanol/Water/Hydrochloric acid (conc.), mobile phase IV: IV = 75%MeOH/20%H2O/5%HCl; for RF, Acetone/Water/Hydrochloric acid (conc.), mobile phase IX: IX = 40%AC/55%H2O/5%HCl; for RF, Methanol/Water/Hydrochloric acid (conc.), mobile phase IX: IX = 50%MeOH/45%H2O/5%HCl; for RF, Dioxane/Water/Hydrochloric acid (conc.), mobile phase V: V = 50%Dioxane/45%H2O/5%HCl; for RF, Acetone/Water/Hydrochloric acid (conc.), mobile phase V: V = 60%AC/35%H2O/5%HCl; for RF, Methanol/Water/Hydrochloric acid (conc.), mobile phase V: V = 70%MeOH/25%H2O/5%HCl; for RF, Dioxane/Water/Hydrochloric acid (conc.), mobile phase VI: VI = 40%Dioxane/55%H2O/5%HCl; for RF, Acetone/Water/Hydrochloric acid (conc.), mobile phase VI: VI = 55%AC/40%H2O/5%HCl; for RF, Methanol/Water/Hydrochloric acid (conc.), mobile phase VI: VI = 65%MeOH/30%H2O/5%HCl; for RF, Acetone/Water/Hydrochloric acid (conc.), mobile phase VII: VII = 50%AC/45%H2O/5%HCl; for RF, Methanol/Water/Hydrochloric acid (conc.), mobile phase VII: VII = 60%MeOH/35%H2O/5%HCl; for RF, Acetone/Water/Hydrochloric acid (conc.), mobile phase VIII: VIII = 45%AC/50%H2O/5%HCl; for RF, Methanol/Water/Hydrochloric acid (conc.), mobile phase VIII: VIII = 55%MeOH/40%H2O/5%HCl
Description: Chromatographic determination of lipophilicity
Merck, Darmstadt, Germany). The mobile phase contained organic modifier (methanol, acetone or dioxane), water and hydrochloric acid.
Methanol was varied in the range […]
with an increment of 10%. […]
before chromatogram development. The solvent developing distance was 4.5 cm. Detection of […]
All experiments were performed at ambient temperature (22±2 °C). Retention parameters were calculated as previously described. […]

[3] = log (Ki/µM AChE), read-out: Y Measured 1 log(ki)Ache (converted)
[4] = ± standard error, 25 °C, ATCh substrate, read-out: Ki AChE
[5] = logarithm of Ki in µM, BChE, dependent variable of the QSAR model, read-out: Y Measured 2 log(ki)Bche, log (Ki/µM BChE) (converted)
[6] = ± standard error, 25 °C, ATCh substrate, read-out: Ki BChE
[7] = Acetone/Water/Hydrochloric acid (conc.)
[8] = Dioxane/Water/Hydrochloric acid (conc.)
[9] = Methanol/Water/Hydrochloric acid (conc.)

T1 sequence (P22303 32-614): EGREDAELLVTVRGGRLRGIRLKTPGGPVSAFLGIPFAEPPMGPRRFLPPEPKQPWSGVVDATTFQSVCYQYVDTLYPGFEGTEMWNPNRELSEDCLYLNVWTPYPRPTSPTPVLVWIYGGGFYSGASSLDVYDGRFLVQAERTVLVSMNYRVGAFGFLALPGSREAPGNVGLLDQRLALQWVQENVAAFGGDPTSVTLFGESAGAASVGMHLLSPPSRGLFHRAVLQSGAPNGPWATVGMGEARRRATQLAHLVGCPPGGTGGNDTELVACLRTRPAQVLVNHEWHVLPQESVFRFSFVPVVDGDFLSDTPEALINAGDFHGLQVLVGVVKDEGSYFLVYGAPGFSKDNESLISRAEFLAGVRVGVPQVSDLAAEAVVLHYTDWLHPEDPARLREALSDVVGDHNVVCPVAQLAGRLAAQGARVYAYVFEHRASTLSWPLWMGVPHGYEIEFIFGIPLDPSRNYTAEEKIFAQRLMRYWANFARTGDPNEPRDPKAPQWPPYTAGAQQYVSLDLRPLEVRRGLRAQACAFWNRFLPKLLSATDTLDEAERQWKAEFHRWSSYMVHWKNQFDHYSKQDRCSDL

| SMILES | IS (recombinant human AChE) | Ki (recombinant human AChE; [4]) | Ki (purified human BChE; [6]) | FRAP ([1]; 10 µM compound) | FRAP ([1]; 100 µM compound) | RM0 [2, 7] | b [2, 7] | RM0 [2, 8] | b [2, 8] | RM0 [2, 9] | b [2, 9] | RF, Methanol/Water/Hydrochloric acid (conc.), mobile phase I ([2]; RP-18 silica) | RF, Dioxane/Water/Hydrochloric acid (conc.), mobile phase II ([2]; RP-18 silica) | RF, Methanol/Water/Hydrochloric acid (conc.), mobile phase II ([2]; RP-18 silica) | RF, Acetone/Water/Hydrochloric acid (conc.), mobile phase III ([2]; RP-18 silica) | RF, Dioxane/Water/Hydrochloric acid (conc.), mobile phase III ([2]; RP-18 silica) | RF, Methanol/Water/Hydrochloric acid (conc.), mobile phase III ([2]; RP-18 silica) | RF, Dioxane/Water/Hydrochloric acid (conc.), mobile phase IV ([2]; RP-18 silica) | RF, Acetone/Water/Hydrochloric acid (conc.), mobile phase IV ([2]; RP-18 silica) | RF, Methanol/Water/Hydrochloric acid (conc.), mobile phase IV ([2]; RP-18 silica) | further results |
| --- | --- | --- | --- | --- | --- | --- | --- | --- | --- | --- | --- | --- | --- | --- | --- | --- | --- | --- | --- | --- | --- |
| Clc1ccc2c(NCCCCCCCCNCC34CC5CC(CC(C5)C3)C4)ccnc2c1 [Compound 5] | 1.2 | 0.075 ± 0.06 µM | 0.091 ± 0.007 µM | 9.5 ± 1.9 µM | 82 ± 4 µM | 2.706 | 4.173 | 1.151 | 2.214 | 3.7376 | 4.663 | 0.67 | 0.78 | 0.62 | 0.55 | 0.7 | 0.42 | 0.7 | 0.49 | 0.44 | less potent AChE inhibitor than donepezil and tacrine (recombinant human AChE): 2 to 3 times; Ki (recombinant human AChE; [3]): 0.0759 µM; increase in AChE inhibition potency (recombinant human AChE; n-octylene spacer vs unbranched compounds with shorter spacer): about 12 times; increase in BChE inhibition vs compounds 3 and 4 (purified human BChE): about 9 times; more potent BChE inhibitor than galantamine (purified human BChE; comparator ref [63]): 12 times; Ki (purified human BChE; [5]): 0.0912 µM; RF, Acetone/Water/Hydrochloric acid (conc.), mobile phase IX ([2]; RP-18 silica): 0.04; RF, Methanol/Water/Hydrochloric acid (conc.), mobile phase IX ([2]; RP-18 silica): 0.02; RF, Dioxane/Water/Hydrochloric acid (conc.), mobile phase V ([2]; RP-18 silica): 0.47; RF, Acetone/Water/Hydrochloric acid (conc.), mobile phase V ([2]; RP-18 silica): 0.39; RF, Methanol/Water/Hydrochloric acid (conc.), mobile phase V ([2]; RP-18 silica): 0.34; RF, Dioxane/Water/Hydrochloric acid (conc.), mobile phase VI ([2]; RP-18 silica): 0.31; RF, Acetone/Water/Hydrochloric acid (conc.), mobile phase VI ([2]; RP-18 silica): 0.32; RF, Methanol/Water/Hydrochloric acid (conc.), mobile phase VI ([2]; RP-18 silica): 0.23; RF, Acetone/Water/Hydrochloric acid (conc.), mobile phase VII ([2]; RP-18 silica): 0.28; RF, Methanol/Water/Hydrochloric acid (conc.), mobile phase VII ([2]; RP-18 silica): 0.11; RF, Acetone/Water/Hydrochloric acid (conc.), mobile phase VIII ([2]; RP-18 silica): 0.19; RF, Methanol/Water/Hydrochloric acid (conc.), mobile phase VIII ([2]; RP-18 silica): 0.07 |
| Clc1ccc2c(NCCNCCC34CC5CC(CC(C5)C3)C4)ccnc2c1 [Compound 8] | 0.6 | 1.6 ± 0.1 µM | 0.92 ± 0.07 µM | 33 ± 12 µM | 62 ± 7 µM | 2.227 | 3.421 | 1.144 | 2.1084 | 2.713 | 3.446 | 0.69 | 0.74 | 0.63 | 0.55 | 0.68 | 0.45 | 0.66 | 0.5 | 0.47 | Ki (recombinant human AChE; [3]): 1.6 µM; Ki (purified human BChE; [5]): 0.92 µM; RF, Acetone/Water/Hydrochloric acid (conc.), mobile phase IX ([2]; RP-18 silica): 0.08; RF, Methanol/Water/Hydrochloric acid (conc.), mobile phase IX ([2]; RP-18 silica): 0.08; RF, Dioxane/Water/Hydrochloric acid (conc.), mobile phase V ([2]; RP-18 silica): 0.47; RF, Acetone/Water/Hydrochloric acid (conc.), mobile phase V ([2]; RP-18 silica): 0.39; RF, Methanol/Water/Hydrochloric acid (conc.), mobile phase V ([2]; RP-18 silica): 0.39; RF, Dioxane/Water/Hydrochloric acid (conc.), mobile phase VI ([2]; RP-18 silica): 0.28; RF, Acetone/Water/Hydrochloric acid (conc.), mobile phase VI ([2]; RP-18 silica): 0.34; RF, Methanol/Water/Hydrochloric acid (conc.), mobile phase VI ([2]; RP-18 silica): 0.28; RF, Acetone/Water/Hydrochloric acid (conc.), mobile phase VII ([2]; RP-18 silica): 0.29; RF, Methanol/Water/Hydrochloric acid (conc.), mobile phase VII ([2]; RP-18 silica): 0.18; RF, Acetone/Water/Hydrochloric acid (conc.), mobile phase VIII ([2]; RP-18 silica): 0.21; RF, Methanol/Water/Hydrochloric acid (conc.), mobile phase VIII ([2]; RP-18 silica): 0.13 |
| Clc1ccc2c(NCCCCCN(CCC34CC5CC(CC(C5)C3)C4)CCC34CC5CC(CC(C5)C3)C4)ccnc2c1 [Compound 11] | 2.5 | 0.33 ± 0.01 µM | 0.82 ± 0.04 µM | 5.3 ± 1.4 µM | 23 ± 4 µM | 3.759 | 4.955 | 2.01 | 2.862 | 5.504 | 5.94 | 0.43 | 0.64 | 0.31 | 0.32 | 0.58 | 0.09 | 0.47 | 0.27 | 0.09 | RF, Acetone/Water/Hydrochloric acid (conc.), mobile phase I ([2]; RP-18 silica, I = 80%AC/15%H2O/5%HCl): 0.58; RF, Dioxane/Water/Hydrochloric acid (conc.), mobile phase I ([2]; RP-18 silica, I = 90%Dioxane/5%H2O/5%HCl): 0.74; RF, Acetone/Water/Hydrochloric acid (conc.), mobile phase II ([2]; RP-18 silica, II = 75%AC/20%H2O/5%HCl): 0.52; RF, Acetone/Water/Hydrochloric acid (conc.), mobile phase IX ([2]; RP-18 silica): 0; RF, Methanol/Water/Hydrochloric acid (conc.), mobile phase IX ([2]; RP-18 silica): 0; RF, Dioxane/Water/Hydrochloric acid (conc.), mobile phase V ([2]; RP-18 silica): 0.13; RF, Acetone/Water/Hydrochloric acid (conc.), mobile phase V ([2]; RP-18 silica): 0.12; RF, Methanol/Water/Hydrochloric acid (conc.), mobile phase V ([2]; RP-18 silica): 0.05; RF, Dioxane/Water/Hydrochloric acid (conc.), mobile phase VI ([2]; RP-18 silica): 0; RF, Acetone/Water/Hydrochloric acid (conc.), mobile phase VI ([2]; RP-18 silica): 0.08; RF, Methanol/Water/Hydrochloric acid (conc.), mobile phase VI ([2]; RP-18 silica): 0.01; RF, Acetone/Water/Hydrochloric acid (conc.), mobile phase VII ([2]; RP-18 silica): 0; RF, Methanol/Water/Hydrochloric acid (conc.), mobile phase VII ([2]; RP-18 silica): 0; RF, Acetone/Water/Hydrochloric acid (conc.), mobile phase VIII ([2]; RP-18 silica): 0; RF, Methanol/Water/Hydrochloric acid (conc.), mobile phase VIII ([2]; RP-18 silica): 0 |
